In patent US20230357271A1, “MACROCYCLIC COMPOUND” (Asahi Kasei Pharma Corporation, priority 2020, published 2023):

How the values were obtained:
human IRAK-4 = human IRAK-4 (Homo sapiens (Human), UniProt Q9NWZ3); assay: Measurement of human IRAK-4 inhibitory activity (TR-FRET); type: biochemical; conditions: 1 nM IRAK-4, 0.5 µM peptide substrate, 10 µM ATP, 23° C., 30 minutes
Method: For the measurement of the activity of the human IRAK-4 (Invitrogen, Cat. PV3362), phosphorylation of the IRAK-4 peptide substrate (biotin-KKKKRFSFKKSFKC) by the enzyme in the presence of 10 µM ATP (Sigma-Aldrich, Cat. A7699) was measured by the TR-FRET method. The enzymatic reaction was performed in a reaction buffer containing 50 mM HEPES (pH 7.2), 1 mM DTT, 0.1 mM Na3VO4, 5 mM MgCl2, 1 mM MnCl2, and 0.1% bovine serum albumin. For the measurement of the IRAK-4 inhibitory activity, a test compound was added to the reaction buffer containing 1 nM IRAK-4, 0.5 µM peptide substrate, and 10 µM ATP, and the mixture was incubated at 23° C. for 30 minutes. Then, a detection solution containing an antibody labeled with europium cryptate (0.3 µg/mL, the antibody was prepared by using the IRAK-4 peptide substrate as the antigen), streptavidin-XL665 (2 µg/mL, CisBio, Cat. 610SAXLB), 50 mM HEPES (pH 7.2), 0.1% BSA, 120 mM KF, and 66.7 mM EDTA (all the concentrations of the reagents are final concentrations) was added to terminate the reaction, and then the mixture was further incubated at 23° C. for 60 minutes. Fluorescence intensity was measured at wavelengths of 665 nm and 620 nm with a microplate reader, and the enzymatic activity was calculated as the ratio of fluorescence intensities at 665 nm and 620 nm (665 nm/620 nm).
When the measurement was performed in multiplicate, the results are represented with average values.

[1] = test system: human acute monocytic leukemia cell strain THP-1; assay: LPS-stimulated TNFα production inhibition test using THP-1 cells; type: cell-based; conditions: LPS 2.5 ng/mL, TNFα by HTRF
Method: By the THP-1 assay, influence of a test compound on the TNFα production induced by LPS stimulation can be evaluated. The THP-1 cells (ATCC, Cat. TIB-202) were inoculated on a 96-well plate at a density of 1 × 10^5 cells/160 µL/well, a test compound was added in a volume of 20 µL, and the plate was incubated at 37° C. for 1 hour in a 5% CO2 incubator. Then, LPS in a volume of 20 µL (final concentration 2.5 ng/mL, Sigma, Cat. L2630) was added, and the plate was further incubated for 4 hours. After the incubation, the plate was centrifuged, and 100 µL of the supernatant was taken from each well, and used for evaluation of the amount of TNFα using HTRF (Cisbio, Cat. 62TNFPEB). In the measurement of the amount of TNFα, the supernatant was diluted twice with the medium, and then added to wells of a 384-well plate in a volume of 10 µL, then anti-TNFα-cryptate (5 µL), and anti-TNFα-XL665 (5 µL) were added, and the plate was left standing overnight. The fluorescence intensity ratio for the wavelengths of 620 and 665 nm (620 nm/665 nm) was measured with a microplate reader, and the amount of TNFα in the supernatant was calculated by using a calibration curve. The TNFα production suppression ratio observed with no addition of LPS was defined to be 100%, the TNFα production suppression ratio observed with no addition of the test compound was defined to be 0%, and IC50 of the test compound was calculated by using the 4-parameter logistic model of the data analysis software XLfit (ID Business Solutions Ltd.).
When the measurement was performed in multiplicate, the results are represented with average values. The values were rounded to the fourth decimal place.

Chain of human IRAK-4 (Q9NWZ3 whole entry): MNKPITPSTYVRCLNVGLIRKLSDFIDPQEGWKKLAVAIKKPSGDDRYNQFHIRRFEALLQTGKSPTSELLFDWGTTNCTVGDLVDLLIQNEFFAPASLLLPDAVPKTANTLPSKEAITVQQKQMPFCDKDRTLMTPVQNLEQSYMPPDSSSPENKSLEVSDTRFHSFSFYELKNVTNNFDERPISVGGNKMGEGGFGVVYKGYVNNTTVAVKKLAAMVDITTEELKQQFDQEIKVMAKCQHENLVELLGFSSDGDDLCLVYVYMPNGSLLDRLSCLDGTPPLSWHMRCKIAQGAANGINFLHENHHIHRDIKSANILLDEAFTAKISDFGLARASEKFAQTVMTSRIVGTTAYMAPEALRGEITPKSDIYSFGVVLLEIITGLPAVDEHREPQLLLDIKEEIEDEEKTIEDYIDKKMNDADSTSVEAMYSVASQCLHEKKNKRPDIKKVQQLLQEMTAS

IC50 (human IRAK-4) [nM] | IC50 ([1]; Homo sapiens, THP-1, 4 h) [µM] | IC50 ([1]; 4 hours) [µM] | SMILES
14.8 | 0.253 | – | CN1CC[C@H]2C[C@H]1C(=O)NCC(C)(C)COc1c(-c3cncnc3)ccc3ncc(nc13)N2 [a-01-40]
0.93 | 0.047 | – | O=C1OCCCOc2c(-c3cnc(CO)nc3)ccc3ncc(cc23)N[C@H]2CCN[C@H]1C2 [a-02-12]
– | 0.324 | – | Cc1ncc(-c2ccc3ncc4cc3c2CCCCNC(=O)[C@@H]2C[C@H](CC(C)N2C)N4)cn1 (some centres unmarked) [a-02-22]
6.46 | 0.058 | – | CCCOCc1ncc(-c2ccc3ncc4cc3c2OCC(F)COC(=O)[C@@H]2C[C@H](CCN2C)N4)cn1 (some centres unmarked) [a-02-14]
3.9 | 0.102 | – | Cc1ncc(-c2ccc3ncc4cc3c2OCC2(CC2)COC(=O)[C@@H]2C[C@H](CCN2C)N4)cn1 [a-02-19]
5.73 | 0.036 | – | CCC(O)COCc1ncc(-c2ccc3ncc4cc3c2OCCCOC(=O)[C@@H]2C[C@H](CCN2C)N4)cn1 (some centres unmarked) [a-02-08]
1.66 | 0.081 | – | Cc1ncc(-c2ccc3ncc4cc3c2OCCCOC(=O)[C@@H]2C[C@H](CCN2)N4)cn1 [a-02-18]
2.2 | 0.135 | – | Cc1ncc(-c2ccc3ncc4cc3c2OCCCNC(=O)[C@@H]2C[C@H](CCN2C)N4)cn1 [a-02-21]
5.63 | 0.023 | – | CN1CC[C@H]2C[C@H]1C(=O)OCCCOc1c(-c3cnc(COCC(O)C4CC4)nc3)ccc3ncc(cc13)N2 (some centres unmarked) [a-02-04]
1.76 | 0.066 | – | Cc1ncc(-c2ccc3ncc4cc3c2/C=C/CCNC(=O)[C@@H]2CC(CC(C)N2C)N4)cn1 (stereo in doubt) [a-02-17, (3^2S,E)-3^1,3^6-Dimethyl-1^6-(2-methylpyrimidin-S-yl)-2,5-diaza-1 (3,5)-qunolina-3(4,2)-piperidinacyclononaphan-8-en-4-one]
2.04 | 0.033 | – | Cc1ncc(-c2ccc3ncc4cc3c2OCCCOC(=O)C2CC(CC(C)N2C)N4)cn1 (centres unmarked) [a-02-07]
– | 0.237 | – | CCCOCc1ncc(-c2ccc3ncc4nc3c2OCCC(C)NC(=O)[C@@H]2C[C@H](CCN2C)N4)cn1 (some centres unmarked) [a-01-43]
2.47 | 0.023 | – | CCCOCc1ncc(-c2ccc3ncc4cc3c2OCCCOC(=O)[C@@H]2C[C@H](CCN2)N4)cn1 [a-02-05]
2 | 0.024 | – | [2H]C([2H])([2H])N1CC[C@H]2C[C@H]1C(=O)NCC(F)COc1c(-c3cnc(COCCC)nc3)ccc3ncc(cc13)N2 (some centres unmarked) [a-02-06]
13.2 | 0.378 | – | CCCOCc1ncc(-c2ccc3ncc4cc3c2CCCCNC(=O)[C@@H]2C[C@H](CCN2C)N4)cn1 [a-02-24, (3^2S,3^4S)-3^1-Methyl-1^6-(2-(propoxymethyl)pyrimidin-5-yl)-2,5-diaza-1(3,5)-qunolina-3(4,2)-piperidinacyclononaphan-4-one]
2.96 | 0.043 | – | CCCOCc1ncc(-c2ccc3ncc4cc3c2OCCCOC(=O)[C@@H]2C[C@H](CCN2C)N4)cn1 [a-02-10]
0.86 | 0.036 | – | Cc1ncc(-c2ccc3ncc4cc3c2OCC(F)CNC(=O)[C@@H]2C[C@H](CC(C)N2C)N4)cn1 (some centres unmarked) [a-02-09]
5.12 | 0.204 | – | CN1CC[C@H]2C[C@H]1C(=O)NCCCCCOc1c(-c3cncnc3)ccc3ncc(nc13)N2 [a-01-39]
1.09 | 0.013 | – | CCCOCc1ncc(-c2ccc3ncc4cc3c2OCC(F)CNC(=O)[C@@H]2C[C@H](CCN2C)N4)cn1 (some centres unmarked) [a-02-02, (3^2S,3^4S)-7-Fluoro-3^1-methyl-1^6-(2-(propoxymethyl)pyrimidin-5-yl)-9-oxa-2,5-diaza-1(3,5)-qunolina-3(4,2)-piperidinacyclononaphan-4-one]
2.51 | 0.013 | – | O=C1OCCCOc2c(-c3cnc(CO[C@H]4CCC[C@@H]4O)nc3)ccc3ncc(cc23)N[C@H]2CCN[C@H]1C2 [a-02-03]
2.36 | 0.21 | – | CN1CC[C@H]2C[C@H]1C(=O)NCC1(CCC1)COc1c(-c3cnc(CO)s3)ccc3ncc(nc13)N2 [a-01-44]
– | 0.5 | – | CCCOCc1ncc(-c2ccc3ncc4cc3c2OCCCNC(=O)[C@@H]2C[C@H](CCN2C)O4)cn1 [a-02-25, (3^2S,3^4S)-3^1-Methyl-1^6-(2-(propoxymethyl)pyrimidin-5-yl)-2,9-dioxa-5-aza-1 (3,5)-qunolina-3 (4,2)-piperidinacyclononaphan-4-one]

The next lines start with the compound.

SMILES | IC50 (human IRAK-4) [nM] | IC50 ([1]; Homo sapiens, THP-1, 4 h) [µM] | IC50 ([1]; 4 hours) [µM]
CCCOCc1ncc(-c2ccc3ncc4nc3c2OCCCNC(=O)[C@@H]2C[C@H](CCN2CC)N4)cn1 [a-01-35] | 2.84 | 0.178 | –
CCCOCc1ncc(-c2ccc3ncc4nc3c2OCCCOC(=O)[C@@H]2C[C@H](CCN2C)N4)cn1 [a-01-15] | 2.77 | 0.081 | –
CCC(O)COCc1ncc(-c2ccc3ncc4nc3c2OCCCNC(=O)[C@@H]2C[C@H](CCN2C)N4)cn1 (some centres unmarked) [a-01-17] | 3.04 | 0.099 | –
CN1CCCOc2c(-c3cncnc3)ccc3ncc(nc23)N[C@H]2CCN(C)[C@@H](C2)C1=O [a-01-34] | 4.19 | 0.177 | –
CCCOCc1ncc(-c2ccc3ncc4nc3c2OCCCC2CCCN2C(=O)[C@@H]2C[C@H](CCN2C)N4)cn1 (some centres unmarked) [a-01-10] | 43.4 | 0.068 | –
CCCOCc1ncc(-c2ccc3ncc4nc3c2OCC(F)(F)CNC(=O)[C@@H]2C[C@H](CCN2C)N4)cn1 [a-01-23] | 1.21 | 0.124 | –
CCCOCc1ncc(-c2ccc3ncc4nc3c2OCC(F)CNC(=O)[C@@H]2C[C@H](CCN2C)N4)cn1 (some centres unmarked) [a-01-05] | 1.37 | – | 0.048
Cc1ncc(-c2ccc3ncc4nc3c2OCC2(CC2)COC(=O)[C@@H]2C[C@H](CCN2C)N4)cn1 [a-01-33] | 4.79 | 0.17 | –
CN1CC[C@H]2C[C@H]1C(=O)NCCCOc1c(-c3cnsc3)ccc3ncc(nc13)N2 [a-01-14] | 1.73 | 0.08 | –
Cc1ncc(-c2ccc3ncc4nc3c2OCC(F)CNC(=O)[C@@H]2C[C@H](CCN2C)N4)cn1 (some centres unmarked) [a-01-19] | 1.6 | – | 0.113
Cc1ncc(-c2ccc3ncc4nc3c2OCC(F)COC(=O)[C@@H]2C[C@H](CCN2C)N4)cn1 (some centres unmarked) [a-01-20] | 1.15 | 0.113 | –
CCCOCc1ncc(-c2ccc3ncc4nc3c2OCC(F)COC(=O)[C@@H]2C[C@H](CCN2C)N4)cn1 (some centres unmarked) [a-01-06] | 2.53 | 0.05 | –
CN1CC[C@H]2C[C@H]1C(=O)NCCCOc1c(-c3cnc(CO)s3)ccc3ncc(nc13)N2 [a-01-11] | 0.79 | 0.073 | –
CN1CC[C@H]2C[C@H]1C(=O)NCCCOc1c(-c3cncnc3)ccc3ncc(nc13)N2 [a-01-09] | 1.28 | 0.064 | –
CCCOCc1ncc(-c2ccc3ncc4nc3c2OCCCCCNC(=O)[C@@H]2C[C@H](CCN2C)N4)cn1 [a-01-27] | 4.25 | 0.145 | –
CN1CC[C@H]2C[C@H]1C(=O)NCC(F)(F)COc1c(-c3cncnc3)ccc3ncc(nc13)N2 [a-01-08] | 1.47 | 0.063 | –
CCCOCc1ncc(-c2ccc3ncc4nc3c2OCCC(C)CNC(=O)[C@@H]2C[C@H](CCN2C)N4)cn1 (some centres unmarked) [a-01-12] | 1.75 | 0.075 | –
Cc1ncc(-c2ccc3ncc4nc3c2OCCCNC(=O)[C@@H]2C[C@H](CCN2C)N4)cn1 [a-01-24] | 2.48 | 0.14 | –
CN1CC[C@H]2C[C@H]1C(=O)NCC1(CC1)COc1c(-c3cnc(CO)s3)ccc3ncc(nc13)N2 [a-01-02] | 0.89 | 0.044 | –
Cc1ncc(-c2ccc3ncc4nc3c2OCC(F)(F)CNC(=O)[C@@H]2C[C@H](CCN2C)N4)cn1 [a-01-28] | 4.04 | 0.149 | –
CCCOCc1ncc(-c2ccc3ncc4nc3c2OCCC(F)CNC(=O)[C@@H]2C[C@H](CCN2C)N4)cn1 (some centres unmarked) [a-01-31] | 3.42 | 0.163 | –
